Results: patent publication US8927717B1, “Thiochromeno[2,3-c]quinolin-12-one derivatives, preparation method and application thereof” (National Defense Medical Center, priority 2014, dated 2015)

Columns and labels:
UACC-257 = type: cell-based
A498 = type: cell-based
MDA-MB-435 = type: cell-based
OVCAR-4 = type: cell-based
HOP-92 = type: cell-based; conditions: 10^−5 molar
HCT-116 = type: cell-based
HCT-15 = type: cell-based
IGROV1 = type: cell-based
NCI-H226 = type: cell-based
SK-OV-3 = type: cell-based
SR = type: cell-based
MOLT-4 = type: cell-based
HCC-2998 = type: cell-based
HOP-62 = type: cell-based
TOP I (Topoisomerase I) = molecular target: T1, TOP I (Topoisomerase I) (Homo sapiens, UniProt P11387); experiment: TOP I mediated supercoiled DNA relaxation assay; type: biochemical; conditions: primary assay at 25 and/or 50 μM
T1 construct: purchased TopoGEN TG2005H
T1 sequence (P11387 1-765): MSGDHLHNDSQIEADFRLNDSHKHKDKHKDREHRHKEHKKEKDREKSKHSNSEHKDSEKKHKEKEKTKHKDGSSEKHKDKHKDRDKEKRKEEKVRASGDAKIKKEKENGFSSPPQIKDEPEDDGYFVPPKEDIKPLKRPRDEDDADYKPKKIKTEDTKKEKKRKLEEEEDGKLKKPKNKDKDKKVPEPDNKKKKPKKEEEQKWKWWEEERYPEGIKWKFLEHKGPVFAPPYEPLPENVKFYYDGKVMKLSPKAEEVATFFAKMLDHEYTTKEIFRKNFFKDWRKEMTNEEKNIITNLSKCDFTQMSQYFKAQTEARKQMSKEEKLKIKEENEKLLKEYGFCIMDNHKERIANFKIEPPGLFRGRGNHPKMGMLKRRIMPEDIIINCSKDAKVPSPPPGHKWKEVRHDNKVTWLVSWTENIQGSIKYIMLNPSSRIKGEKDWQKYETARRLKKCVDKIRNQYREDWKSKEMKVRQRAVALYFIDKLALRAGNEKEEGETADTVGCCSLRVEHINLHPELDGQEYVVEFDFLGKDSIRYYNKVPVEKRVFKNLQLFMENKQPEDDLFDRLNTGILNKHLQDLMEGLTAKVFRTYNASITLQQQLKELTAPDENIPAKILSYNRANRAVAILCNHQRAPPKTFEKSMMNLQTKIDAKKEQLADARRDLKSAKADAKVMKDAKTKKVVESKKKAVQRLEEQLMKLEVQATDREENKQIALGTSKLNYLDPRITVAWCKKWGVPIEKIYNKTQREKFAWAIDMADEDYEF
Experimental: According to the cell cytotoxicity, compounds 5, 7, 8, 16, 19, N2, N7, N8, N9, N14-N19, and N25 were also selected for primary TOP I and II activities assays at 25 and/or 50 μM (FIG. 2-4).

BT-549 = type: cell-based
SF-539 = type: cell-based
CAKI-1 = type: cell-based
A549/ATCC = type: cell-based
SK-MEL-2 = type: cell-based
OVCAR-3 = type: cell-based
[1] = Melanoma, 10^−5 molar, 48 hours, SRB
[2] = Renal cancer, 10^−5 molar, 48 hours, SRB
[3] = Ovarian cancer, 10^−5 molar, 48 hours, SRB
[4] = Colon cancer, 10^−5 molar, 48 hours, SRB
[5] = Homo sapiens, HCT-116, five dose
[6] = Homo sapiens, HCT-15, five dose
[7] = Homo sapiens, NCI-H226, five dose
[8] = Non-small cell lung cancer, 10^−5 molar, 48 hours, SRB
[9] = Leukemia, 10^−5 molar, 48 hours, SRB
[10] = Homo sapiens, HCC-2998, five dose
[11] = Homo sapiens, HOP-62, five dose
[12] = Homo sapiens, SF-539, five dose
[13] = Homo sapiens, A549/ATCC, five dose
[14] = Homo sapiens, SK-Mel-2, five dose

CN(C)CCCNc1nc2ccccc2c2c(=O)c3cc(Cl)ccc3sc12 [Compound N17, 10-Chloro-6-((3-(dimethylamino)propyl)amino)-12H-thiochromeno[2,3-c]quinolin-12-one]
Growth percent (UACC-257; UACC-257, 10^−5 molar): 107.40% | Growth percent (A498; A498, 10^−5 molar): 78.57% | Growth percent (MDA-MB-435; MDA-MB-435, 10^−5 molar): 93.04% | Growth percent (OVCAR-4; OVCAR-4, 10^−5 molar): 94.63% | melting point: 194 to 195 °C | Growth percent (HOP-92; HOP-92): 40.76% | Growth percent (HCT-116; HCT-116, 10^−5 molar): 70.19% | Growth percent (HCT-15; HCT-15, 10^−5 molar): 80.92% | Growth percent (IGROV1; IGROV1, 10^−5 molar): 87.27% | Growth percent (NCI-H226; NCI-H226, 10^−5 molar): 81.01% | Growth percent (SK-OV-3; SK-OV-3, 10^−5 molar): 99.91% | Growth percent (SR; SR, 10^−5 molar): 48.48% | Growth percent (MOLT-4; MOLT-4, 10^−5 molar): 70.71% | Growth percent (HCC-2998; HCC-2998, 10^−5 molar): 108.36% | Growth percent (HOP-62; HOP-62, 10^−5 molar): 86.73% | inhibitory effect in TOP I activity assay compared with CPT (TOP I (Topoisomerase I)): more potent inhibitory effects than CPT | Growth percent (BT-549; BT-549, 10^−5 molar): 99.81% | Growth percent (SF-539; SF-539, 10^−5 molar): 87.85% | Growth percent (CAKI-1; CAKI-1, 10^−5 molar): 84.31% | Growth percent (A549/ATCC; A549/ATCC, 10^−5 molar): 81.19% | Growth percent (SK-MEL-2; SK-Mel-2, 10^−5 molar): 106.47%

CCNc1nc2ccccc2c2c(=O)c3cc(Cl)ccc3sc12 [Compound N2, 10-Chloro-6-ethylamino-12H-thiochromeno[2,3-c]quinolin-12-one]
GI50 (UACC-257; Homo sapiens, UACC-257, five dose): > 100 µM | CC50 (UACC-257; Homo sapiens, UACC-257, five dose, read-out: LC50 (the source's name)): > 100 µM | Growth percent UACC-257 (UACC-257; [1]): 75.21% | TGI (UACC-257; UACC-257, five dose): >100 µM | TGI (A498; A498, five dose): 91.3 µM | GI50 (A498; Homo sapiens, A498, five dose): 15.3 µM | CC50 (A498; Homo sapiens, A498, five dose, read-out: LC50 (the source's name)): > 100 µM | Growth percent A498 (A498; [2]): 61.02% | GI50 (MDA-MB-435; Homo sapiens, MDA-MB-435, five dose): > 100 µM | CC50 (MDA-MB-435; Homo sapiens, MDA-MB-435, five dose, read-out: LC50 (the source's name)): > 100 µM | TGI (MDA-MB-435; MDA-MB-435, five dose): >100 µM | Growth percent MDA-MB-435 (MDA-MB-435; [1]): 80.67% | GI50 (OVCAR-4; Homo sapiens, OVCAR-4, five dose): > 100 µM | CC50 (OVCAR-4; Homo sapiens, OVCAR-4, five dose, read-out: LC50 (the source's name)): > 100 µM | TGI (OVCAR-4; OVCAR-4, five dose): >100 µM | Growth percent OVCAR-4 (OVCAR-4; [3]): 23.19% | GI50 (OVCAR-3; Homo sapiens, OVCAR-3, five dose): 52.4 µM | CC50 (OVCAR-3; Homo sapiens, OVCAR-3, five dose, read-out: LC50 (the source's name)): > 100 µM | TGI (OVCAR-3; OVCAR-3, five dose): >100 µM | Growth percent OVCAR-3 (OVCAR-3; [3]): 76.51% | Growth percent HOP-92 (HOP-92; Non-small cell lung cancer, 48 hours, SRB): −0.07% | Growth percent HCT-116 (HCT-116; [4]): 48.13% | TGI (HCT-116; HCT-116, five dose): >100 µM | GI50 (HCT-116; [5]): 6.31 µM | LC50 (concentration killing 50% of cells) (HCT-116; [5]): > 100 µM | Growth percent HCT-15 (HCT-15; [4]): 79.72% | TGI (HCT-15; HCT-15, five dose): >100 µM | GI50 (HCT-15; [6]): > 100 µM | LC50 (HCT-15; [6]): > 100 µM | GI50 (IGROV1; Homo sapiens, IGROV-1, IGROV1, five dose): 11.9 µM | CC50 (IGROV1; Homo sapiens, IGROV-1, IGROV1, five dose, read-out: LC50 (the source's name)): > 100 µM | TGI (IGROV1; IGROV1, five dose): 54.40 µM | Growth percent IGROV1 (IGROV1; [3]): 59.26% | GI50 (NCI-H226; [7]): 33.2 µM | LC50 (concentration giving 50% net cell kill) (NCI-H226; [7]): > 100 µM | TGI (NCI-H226; NCI-H226, five dose): >100 µM | Growth percent NCI-H226 (NCI-H226; [8]): 41.31% | GI50 (SK-OV-3; Homo sapiens, SK-OV-3, five dose): 11.1 µM | CC50 (SK-OV-3; Homo sapiens, SK-OV-3, five dose, read-out: LC50 (the source's name)): > 100 µM | Growth percent SK-OV-3 (SK-OV-3; [3]): 28.90% | TGI (SK-OV-3; SK-OV-3, five dose): 35.20 µM | GI50 (SR; Homo sapiens, SR, five dose): > 100 µM | LC50 (50% lethal concentration) (SR; Homo sapiens, SR, five dose): > 100 µM | Growth percent SR (SR; [9]): 84.32% | TGI (SR; SR, five dose): >100 µM | GI50 (MOLT-4; Homo sapiens, MOLT-4, five dose): > 100 µM | CC50 (MOLT-4; Homo sapiens, MOLT-4, five dose, read-out: LC50 (the source's name)): > 100 µM | Growth percent MOLT-4 (MOLT-4; [9]): 92.27% | TGI (MOLT-4; MOLT-4, five dose): >100 µM | Growth percent HCC-2998 (HCC-2998; [4]): 98.02% | TGI (HCC-2998; HCC-2998, five dose): >100 µM | GI50 (HCC-2998; [10]): > 100 µM | LC50 (HCC-2998; [10]): > 100 µM | TGI (HOP-62; HOP-62, five dose): 35.20 µM | GI50 (HOP-62; [11]): 13.3 µM | LC50 (lethal concentration 50) (HOP-62; [11]): 93.1 µM | Growth percent HOP-62 (HOP-62; [8]): 57.49% | TGI (BT-549; BT-549, five dose): >100 µM | Growth percent BT-549 (BT-549; Breast cancer, 10^−5 molar, 48 hours, SRB): 100.10% | GI50 (BT-549; Homo sapiens, BT-549, five dose): 9.87 µM | CC50 (BT-549; Homo sapiens, BT-549, five dose, read-out: LC50 (the source's name)): > 100 µM | Growth percent SF-539 (SF-539; CNS cancer, 10^−5 molar, 48 hours, SRB): 60.35% | GI50 (SF-539; [12]): 10.1 µM | LC50 (SF-539; [12]): > 100 µM | TGI (SF-539; SF-539, five dose): 58.50 µM | TGI (CAKI-1; CAKI-1, five dose): >100 µM | GI50 (CAKI-1; Homo sapiens, CAKI-1, five dose): 26.4 µM | CC50 (CAKI-1; Homo sapiens, CAKI-1, five dose, read-out: LC50 (the source's name)): > 100 µM | Growth percent CAKI-1 (CAKI-1; [2]): 72.44% | TGI (A549/ATCC; A549/ATCC, five dose): >100 µM | GI50 (A549/ATCC; [13]): 48.1 µM | LC50 (A549/ATCC; [13]): > 100 µM | Growth percent A549/ATCC (A549/ATCC; [8]): 61.84% | GI50 (SK-MEL-2; [14]): 16.3 µM | LC50 (SK-MEL-2; [14]): > 100 µM | Growth percent SK-MEL-2 (SK-MEL-2; [1]): 76.15% | TGI (SK-MEL-2; SK-Mel-2, five dose): 43.2 µM
